# Reference: patent USRE31588E, “Imidazolylmethylthioethyl alkynyl guanidines” (Bristol-Myers Company, priority 1981, dated 1984)
# “Also recorded” adds a separate entry of the source.
# Key:
# gastric acid output [1] = assay: Gastric antisecretory activity in the two hour pylorus ligated (Shay) rat; assay type: in vivo, rat (male Long Evans); conditions: vs cimetidine
# Description: The pyloric ligation procedure in the rat was designed by Shay et al., Gastroenterology, 5, 53 (1945) for the study of perforating gastric ulcers; however, as the method became known, it was also employed as a means of studying rat gastric secretion, Shay et al., Gastroenterology, 26, 906 (1954), Brodie, D. A., Am. J. Dig. […] A modification of this procedure is presently used to evaluate compounds for gastric antisecretory activity.
# Male Long Evans rats, 280-300 gm., are used. The animals are placed in individual cages and fasted for 24 hours with free access to water. Under ether anesthesia, the stomach is reached through a midline incision, and a cotton-thread ligature is placed around the pylorus. After wound closure, ether administration is stopped and either BL-5641, cimetidine or vehicle are administered intraperitoneally in a volume of […]. BL-5641 and cimetidine are solubilized with one equivalent of HCl and brought to the proper volume with water. The animals are returned to their cages from which the water bottles have been removed and two hours later are sacrificed with ether. […] Titratable acid output is calculated in microequivalents by multiplying the volume in milliliters by the acid concentration in milliequivalents per liter. The percent inhibition of acid output is calculated as follows [formula]
# gastric acid output [2] = assay: Gastric antisecretory activity in the gastric fistula dog (histamine-induced); assay type: in vivo, dog (beagle); conditions: for Onset of inhibitory effect on gastric acid output: iv
# Protocol: Thomas type [Thomas, J. E., Proc. Soc. exp. Biol. Med., 46, 260 (1941)] stainless steel cannulae are inserted into the stomachs of beagle dogs (10-12 kg.) just orad to the pyloric gland area near the greater curvature to provide a chronic gastric fistula. Animals are allowed to recover for at least two months before any testing is done. Dogs are fasted overnight (~18 hours) with water ad lib prior to each experiment. The dogs are placed in a sling and an eight inch inside needle catheter (C. R. Baird, Inc.) with a 2 inch 17 gauge needle is inserted into a leg vein fior purposes of drug administration. Gastric secretions are collected every 15 minutes by gravity drainage from the opened cannula. […] A modification of the procedure described by Grossman and Konturek, Gastroenterology, 66, 517 (1974) was followed. […] Each 15 minute sample of gastric juice is measured to the nearest 0.5 ml. and titratable acidity against 0.02N NaOH (endpoint pH 7.0) is measured with an Autoburet and pH meter (radiometer). The percent inhibition of acid output is calculated as described in the pylorus ligated rat procedure.
# [3] = molecular target: T1, histamine H2-receptors (isolated, spontaneously beating guinea pig right atria) (Cavia porcellus, UniProt P47747); assay: Histamine H2-receptor antagonism, isolated guinea pig atria assay; assay type: cell-based; design: The spontaneously beating right atrium was dissected free from other tissues; from tissue; host or cells: isolated, spontaneously beating right atrium of male Hartley guinea pigs; conditions: for Histamine ED50 (concentration of histamine which increased contractile rate 50% of maximum) after test compound: test compound 1 × 10^-5 M, 30 minute incubation
# Protocol: Subsequent investigations by Hughes and Coret, Proc. Soc. […] Black et al., Agents and Actions, 3, 133 (1973) and Brimblecombe et al., Fed. […] The present comparative studies were carried out using a modification of the procedure reported by Reinhardt et al., Agents and Actions, 4, 217 (1974).
# Male Hartley strain guinea pigs (350-450 gm.) were sacrificed by a blow on the head. The heart was excised and placed in a Petri dish of oxygenated (95% O2, 5% CO2) modified Krebs solution (g./liter: NaCl 6.6, KCl 0.35, MgSO4. 7 H2 O 0.295, KH2 PO4 0.162, CaCl2 0.238, NaHCO3 2.1 and dextrose 2.09). The spontaneously beating right atrium was dissected free from other tissues and a silk thread (4-0) attached to each end. The atrium was suspended in a 20 ml. muscle chamber containing oxygenated modified Krebs solution maintained at 32° C. Atrial contractions were recorded isometrically by means of a Grass FT 0.03 force displacement transducer and recordings of contractile force and rate were made with a Beckman RP Dynograph.
# A resting tension of 1 g. was applied to the atrium and it was allowed to equilibrate for 1 hour.
# Concentration-response curve displacement factors were calculated as follows: [formula] The factor obtained for BL-5641 was then expressed as a ratio of the factor obtained for cimetidine. [formula]
# gastric secretion = conditions: cited from earlier work
# [4] = in vivo, cited from earlier work
# H2 receptor = conditions: cited from earlier work
# [5] = clinical; cited from earlier work
# peptic ulcer disease = conditions: Gray et al., Lancet 1977; cited from earlier work
# [6] = molecular target: T1, histamine H2-receptors (isolated, spontaneously beating guinea pig right atria); conditions: cited from earlier work
# T1 sequence (P47747 whole entry): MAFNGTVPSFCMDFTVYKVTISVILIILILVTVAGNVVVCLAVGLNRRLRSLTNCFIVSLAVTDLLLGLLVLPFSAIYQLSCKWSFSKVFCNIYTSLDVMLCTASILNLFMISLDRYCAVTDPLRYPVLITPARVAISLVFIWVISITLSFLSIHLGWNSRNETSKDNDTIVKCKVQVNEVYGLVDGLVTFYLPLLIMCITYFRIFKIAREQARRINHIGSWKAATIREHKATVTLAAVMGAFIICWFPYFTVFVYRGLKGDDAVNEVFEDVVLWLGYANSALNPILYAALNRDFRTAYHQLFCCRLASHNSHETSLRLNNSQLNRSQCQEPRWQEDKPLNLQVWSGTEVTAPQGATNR
smiles,measurement,setting,value
"C#CCN=C(NC#N)NCCSCc1[nH]cnc1C [BL-5641, N-Cyano-N'-{2-[(4-methyl-5-imidazolyl)methylthio]ethyl}-N""-propargylguanidine]",Potency for inhibition of gastric acid output,gastric acid output [1],more potent than cimetidine; also recorded: at least as potent as cimetidine
same,Duration of activity,"gastric acid output [2]; equal doses, vs cimetidine",longer duration of activity than cimetidine
same,Degree and duration of inhibition,"gastric acid output [2]; equimolar doses, vs cimetidine",consistently greater and of longer duration with BL-5641 than with cimetidine
same,Onset of inhibitory effect on gastric acid output,gastric acid output [2],immediate inhibitory effect on gastric acid output
same,Potency as inhibitor of gastric secretion,gastric acid output [2]; vs cimetidine,more potent and/or longer acting than cimetidine; also recorded: more potent than cimetidine
same,Potency as histamine H2-receptor antagonist,"[3]; isolated guinea pig atria, vs cimetidine",more potent than cimetidine
same,Histamine ED50 (concentration of histamine which increased contractile rate 50% of maximum) after test compound,[3],12.44 µg/mL
CNC(=S)NCCCCc1cnc[nH]1 [Burimamide],Inhibition of gastric secretion,gastric secretion; animals and man,inhibits gastric secretion in animals and man
same,Clinical effectiveness as H2 receptor antagonist,gastric secretion; clinical,first clinically effective H2 receptor antagonist
same,Oral absorption,[4]; po,oral absorption is poor
same,Mode of antagonism at histamine H2-receptors,"H2 receptor; Black et al., Nature 1972",competitive antagonist
CNC(=NC#N)NCCSCc1[nH]cnc1C [Cimetidine],Onset of inhibitory effect on gastric acid output,gastric acid output [2],immediate inhibitory effect on gastric acid output
same,Half-life,[4],relatively short
same,H2 antagonist potency/effectiveness,H2 receptor,as effective an H2 antagonist as metiamide
same,Agranulocytosis,[5],without producing agranulocytosis
same,Effectiveness in treatment of peptic ulcer disease,peptic ulcer disease,effective therapeutic agent in the treatment of peptic ulcer disease
same,Histamine ED50 (concentration of histamine which increased contractile rate 50% of maximum) after test compound,[3],1.39 µg/mL
NCCc1c[nH]cn1 [Histamine],Effect on contractile rate of guinea pig right atria,[6],concentration-related increases in the contractile rate
same,Histamine concentration at which maximal response occurred,[3]; cumulative histamine addition,30 µM
CNC(=S)NCCSCc1[nH]cnc1C [Metiamide],Oral activity,gastric secretion; man,orally active in man
same,H2 antagonist potency/effectiveness,H2 receptor,more potent than burimamide
same,Agranulocytosis,[5],toxicity (agranulocytosis)
